Columns and labels:
[1] = target: human GABAA α5β2γ1 receptor (Homo sapiens (Human), UniProt P31644+Q8N1C3); assay: Radioligand binding assay, competition for [3H]RO7239181, γ1-containing GABAA subtypes
h-GABA-A α2β2γ1 = h-GABA-A α2β2γ1 (Homo sapiens (Human), UniProt P47869+Q8N1C3); assay: Two-electrode voltage clamp electrophysiology in Xenopus oocytes expressing GABAA receptors; format: cell-based; conditions: for Efficacy (GABA) %: % modulation of GABA EC20 = 100*(Fold increase−1), compound at about 30-fold its Ki α2β2γ1; for Fold increase h-GABA-A α2β2γ1 oocyte @ 30-fold Ki: Xenopus oocytes, GABA EC20, compound at about 30-fold its Ki α2β2γ1
Summary of the method: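 Xenopus oocytes injected with receptor subunit RNA and recorded 3–5 days later by two-electrode voltage clamp at −80 mV, room temperature, pH 7.4. GABA applied at EC20 for 1.5 min, with and without test compound. Efficacy = extremum of the point-by-point ratio of the two responses, expressed as % modulation of GABA EC20; ≥3 oocytes per concentration.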

SMILES: Cc1nnc2n1-c1sc3c(c1C(c1c(F)cccc1F)=N[C@H]2C)CCCC(F)(F)C3 [Example 8, (7S)-9-(2,6-difluorophenyl)-15,15-difluoro-3,7-dimethyl-18-thia-2,4,5,8-tetrazatetracyclo[8.8.0.02,6.011,17]octadeca-1(10),3,5,8,11(17)-pentaene]
- Ki [1]: 12.8 nM
- Efficacy (GABA) % (h-GABA-A α2β2γ1): 203%
- Fold increase h-GABA-A α2β2γ1 oocyte @ 30-fold Ki (h-GABA-A α2β2γ1): 3.03

SMILES: Cc1nnc2n1-c1sc3c(c1C(c1c(F)cccc1Cl)=N[C@H]2C)COCCC3 [Example 61, (7S)-9-(2-chloro-6-fluoro-phenyl)-3,7-dimethyl-13-oxa-18-thia-2,4,5,8-tetrazatetracyclo[8.8.0.02,6.011,17]octadeca-1(10),3,5,8,11(17)-pentaene]
- Ki [1]: 4.98 nM
- Efficacy (GABA) % (h-GABA-A α2β2γ1): 165%
- Fold increase h-GABA-A α2β2γ1 oocyte @ 30-fold Ki (h-GABA-A α2β2γ1): 2.65

SMILES: C[C@@H]1N=C(c2c(F)cccc2F)c2c(sc3c2COCCC3)-n2nc(C(=O)NCC3(O)CC3)nc21 [Example 62, (7S)-9-(2,6-difluorophenyl)-N-[(1-hydroxycyclopropyl)methyl]-7-methyl-13-oxa-18-thia-2,3,5,8-tetrazatetracyclo[8.8.0.02,6.011,17]octadeca-1(10),3,5,8,11(17)-pentaene-4-carboxamide]
- Ki [1]: 5.9 nM
- Efficacy (GABA) % (h-GABA-A α2β2γ1): 179%
- Fold increase h-GABA-A α2β2γ1 oocyte @ 30-fold Ki (h-GABA-A α2β2γ1): 2.79

SMILES: C[C@@H]1N=C(c2c(F)cccc2F)c2c(sc3c2COCCO3)-n2nc(C(=O)N3CC(F)C3)nc21 [Example 24, (3-fluoroazetidin-1-yl)-[(7S)-9-(2,6-difluorophenyl)-7-methyl-13,16-dioxa-18-thia-2,3,5,8-tetrazatetracyclo[8.8.0.02,6.011,17]octadeca-1(10),3,5,8,11(17)-pentaen-4-yl]methanone]
- Ki [1]: 1.25 nM
- Efficacy (GABA) % (h-GABA-A α2β2γ1): 59%
- Fold increase h-GABA-A α2β2γ1 oocyte @ 30-fold Ki (h-GABA-A α2β2γ1): 1.59

SMILES: Cc1nnc2n1-c1sc3c(c1C(c1c(F)cccc1F)=N[C@H]2C)OCCCC3 [Example 33, (7S)-9-(2,6-difluorophenyl)-3,7-dimethyl-12-oxa-18-thia-2,4,5,8-tetrazatetracyclo[8.8.0.02,6.011,17]octadeca-1(10),3,5,8,11(17)-pentaene]
- Ki [1]: 21.8 nM
- Efficacy (GABA) % (h-GABA-A α2β2γ1): 76%
- Fold increase h-GABA-A α2β2γ1 oocyte @ 30-fold Ki (h-GABA-A α2β2γ1): 1.76

SMILES: CCNC(=O)c1nc2n(n1)-c1sc3c(c1C(c1c(F)cccc1F)=N[C@H]2C)COCCO3 [Example 37, (7S)-9-(2,6-difluorophenyl)-N-ethyl-7-methyl-13,16-dioxa-18-thia-2,3,5,8-tetrazatetracyclo[8.8.0.02,6.011,17]octadeca-1(10),3,5,8,11(17)-pentaene-4-carboxamide]
- Ki [1]: 3.21 nM
- Efficacy (GABA) % (h-GABA-A α2β2γ1): 86%
- Fold increase h-GABA-A α2β2γ1 oocyte @ 30-fold Ki (h-GABA-A α2β2γ1): 1.86

SMILES: C[C@@H]1N=C(c2c(F)cccc2F)c2c(sc3c2CCCCC3)-n2c(-c3cccnn3)nnc21 [Example 4, (7S)-9-(2,6-difluorophenyl)-7-methyl-3-pyridazin-3-yl-18-thia-2,4,5,8-tetrazatetracyclo[8.8.0.02,6.011,17]octadeca-1(10),3,5,8,11(17)-pentaene]
- Ki [1]: 8.65 nM
- Efficacy (GABA) % (h-GABA-A α2β2γ1): 119%
- Fold increase h-GABA-A α2β2γ1 oocyte @ 30-fold Ki (h-GABA-A α2β2γ1): 2.19

SMILES: CC(C)c1nnc2n1-c1sc3c(c1C(c1c(F)cccc1F)=N[C@H]2C)COCCO3 [Example 44, (7S)-9-(2,6-difluorophenyl)-3-isopropyl-7-methyl-13,16-dioxa-18-thia-2,4,5,8-tetrazatetracyclo[8.8.0.02,6.011,17]octadeca-1(10),3,5,8,11(17)-pentaene]
- Ki [1]: 4.87 nM
- Efficacy (GABA) % (h-GABA-A α2β2γ1): 116%
- Fold increase h-GABA-A α2β2γ1 oocyte @ 30-fold Ki (h-GABA-A α2β2γ1): 2.16

SMILES: C[C@@H]1N=C(c2c(F)cccc2F)c2c(sc3c2COCCC3)-n2nc(C(=O)N[C@H]3C[C@H](O)C3)nc21 [Example 63, (7S)-9-(2,6-difluorophenyl)-N-(trans-3-hydroxycyclobutyl)-7-methyl-13-oxa-18-thia-2,3,5,8-tetrazatetracyclo[8.8.0.02,6.011,17]octadeca-1(10),3,5,8,11(17)-pentaene-4-carboxamide]
- Ki [1]: 8.1 nM
- Efficacy (GABA) % (h-GABA-A α2β2γ1): 169%
- Fold increase h-GABA-A α2β2γ1 oocyte @ 30-fold Ki (h-GABA-A α2β2γ1): 2.69
